# Assay: Particle size distribution (Psd comparison) of Tiacumicin B crystals
# Assay type: physicochemical
# Conditions: in µm (unit assumed)
# Experimental: 3000 g of pure Tiacumicin B were dissolved in about 40 L of CH3OH. 80 L of (C2H5)2O were added under stirring to the solution at the room temperature. The solution was then heated at 39° C. and the mixer speed was set at 20 rpm; 160 L of n-Pentane were added in about 30 minutes. The mixer speed was then set at 15 rpm and the solution was cooled at 5° C. in about 5 hours. The suspension was then filtered and product dried under vacuum. The crystal obtained has a not well defined crystal shape and a high amount of fine that make the product difficult to formulate. […] of pure Tiacumicin B were dissolved in 33 mL of CH3OH. 66 mL of (C2H5)2O were added under stirring to the solution at the room temperature. The solution was then heated at 39° C. and the mixer speed was set at 400 rpm; 132 mL of n-Pentane were added in about 30 minutes. The mixer speed was then set at 200 rpm and the solution was cooled at 5° C. in about 60 minutes. The suspension was heated at 30° C. and maintained at this temperature for about 30 minutes; then the suspension was cooled at 5° C. in about 60 minutes. The suspension was heated at 25° C. and maintained at this temperature for about 30 minutes; then the suspension was cooled at 5° C. in about 60 minutes. The suspension was heated at 15° C. and maintained at this temperature for about 30 minutes; then the suspension was cooled at 5° C. in about 60 minutes and maintained in this condition over night. The crystals obtained has a different more homogeneous and regular crystal habit respect to that obtained with the standard process and an improved psd (see FIGS. 3 and 4 and Table). 2000 g of pure Tiacumicin B were dissolved in 26 L of CH3OH. 52 L of (C2H5)2O were added under stirring to the solution at the room temperature. The solution was then heated at 39° C. and the mixer speed was set at 20 rpm; 130 L of n-Pentane were added in about 30 minutes. The mixer speed was then set at 8 rpm and the solution was cooled at 35° C. and maintained at this temperature for about 60 minutes. The suspension was cooled at 30° C. and maintained at this temperature for about 60 minutes. Then the suspension was cooled at 25° C. and maintained at this temperature for about 30 minutes. Then the suspension was cooled at 20° C. and maintained at this temperature for about 30 minutes. Then the suspension was cooled at 15° C. and maintained at this temperature for about 30 minutes. Then the suspension was cooled at 10° C. and maintained at this temperature for about 30 minutes. Then the suspension was cooled at 5° C. and maintained at this temperature for about 30 minutes. The suspension was heated at 30° C. and maintained at this temperature for about 30 minutes; then the suspension was cooled at 5° C. in about 60 minutes. The suspension was heated at 25° C. and maintained at this temperature for about 30 minutes; then the suspension was cooled at 5° C. in about 60 minutes. The suspension was heated at 15° C. and maintained at this temperature for about 30 minutes; then the suspension was cooled at 5° C. in about 60 minutes and maintained in this condition over night. The crystals obtained has a different more homogeneous and regular crystal habit respect to that obtained with the standard process and an improved psd (see FIGS. 3 and 4 and Table).
Structure (SMILES),D(0.1),D(0.5),D(0.9)
"CCc1c(Cl)c(O)c(Cl)c(O)c1C(=O)O[C@H]1[C@H](O)[C@H](OC)[C@H](OC/C2=C\C=C\C[C@H](O)/C(C)=C/[C@H](CC)[C@@H](O[C@@H]3OC(C)(C)[C@@H](OC(=O)C(C)C)[C@H](O)[C@@H]3O)/C(C)=C/C(C)=C/C[C@@H]([C@@H](C)O)OC2=O)O[C@@H]1C [Example 1, Tiacumicin B]",3.90,11.36,27.35
"CCc1c(Cl)c(O)c(Cl)c(O)c1C(=O)O[C@H]1[C@H](O)[C@H](OC)[C@H](OC/C2=C\C=C\C[C@H](O)/C(C)=C/[C@H](CC)[C@@H](O[C@@H]3OC(C)(C)[C@@H](OC(=O)C(C)C)[C@H](O)[C@@H]3O)/C(C)=C/C(C)=C/C[C@@H]([C@@H](C)O)OC2=O)O[C@@H]1C [Example 3, Tiacumicin B]",7.04,23.98,55.27
"CCc1c(Cl)c(O)c(Cl)c(O)c1C(=O)O[C@H]1[C@H](O)[C@H](OC)[C@H](OC/C2=C\C=C\C[C@H](O)/C(C)=C/[C@H](CC)[C@@H](O[C@@H]3OC(C)(C)[C@@H](OC(=O)C(C)C)[C@H](O)[C@@H]3O)/C(C)=C/C(C)=C/C[C@@H]([C@@H](C)O)OC2=O)O[C@@H]1C [Example 2, Tiacumicin B]",10.82,35.94,73.79

# — patent publication US9862740B2, “Process for preparing novel forms of tiacumicin B” (Olon S.P.A., priority 2014, dated 2018)
